For the first experiment, the target named is T1, KRAS G12C 1-169, his-tagged protein, GDP-loaded (Homo sapiens, UniProt P01116, G12C).
T1 construct: KRAS G12C 1-169, his-tagged protein, GDP-loaded
Description: Biochemical assay: covalent modification of KRAS G12C measured by mass spectrometry (RapidFire/TOF or Q-Exactive). Also: time not given here. It counts as binding. To be noted: tested at 32 μM. The gist of the method: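 GDP-loaded KRAS G12C 1-169 (his-tagged, 2 μM or 0.5 μM in 20 mM Hepes, 150 mM NaCl, 1 mM MgCl2) reacted with compound at 32 μM or 8 μM final, then quenched with formic acid. Intact-protein LC-MS (RapidFire/TOF or Q-Exactive) with charge-envelope deconvolution; % modification from modified vs unmodified peak intensities.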
For the compound `C=CC(=O)N1CCC2(CCN(c3cc(OCc4ccccn4)cc(-c4c(C)ccc5[nH]ncc45)c3C#N)C2)C1` (stereo not shown) [Compound I-61, 2-(7-acryloyl-2,7-diazaspiro[4.4]nonan-2-yl)-6-(5-methyl-1H-indazol-4-yl)-4-(pyridin-2-ylmethoxy) benzonitrile], the Bind % entry was “+ (+ indicates binding activity greater than 0% and up to 50%)”.
As to `C=CC(=O)N1CCC2(CCCN(c3cc(OCc4ccccn4)cc(-c4c(C)ccc5[nH]ncc45)c3C#N)C2)C1` (stereo not shown) [Compound I-62, 2-(2-acryloyl-2,7-diazaspiro[4.5]decan-7-yl)-6-(5-methyl-1H-indazol-4-yl)-4-(pyridin-2-ylmethoxy) benzonitrile], the Bind % entry was “+ (+ indicates binding activity greater than 0% and up to 50%)”.
With `CC#CC(=O)N1CCC2(CCCN(c3cc(OCc4ccccn4)cc(-c4c(C)ccc5[nH]ncc45)c3C#N)C2)C1` (stereo not shown) [Compound I-63, 2-(2-(but-2-ynoyl)-2,7-diazaspiro[4.5]decan-7-yl)-6-(5-methyl-1H-indazol-4-yl)-4-(pyridin-2-ylmethoxy) benzonitrile], the Bind % result was “+ (+ indicates binding activity greater than 0% and up to 50%)”.
For the compound `CC#CC(=O)N1CCC2(CC1)CN(c1cc(OCc3ccccn3)cc(-c3c(C)ccc4[nH]ncc34)c1C#N)C2` [Compound I-64, 2-(7-(but-2-ynoyl)-2,7-diazaspiro[3.5]nonan-2-yl)-6-(5-methyl-1H-indazol-4-yl)-4-(pyridin-2-ylmethoxy) benzonitrile], the Bind % result was “+ (+ indicates binding activity greater than 0% and up to 50%)”.
Turning to `C=CC(=O)N1CCC2(CC1)CN(c1cc(OCc3ccccn3)cc(-c3c(C)ccc4[nH]ncc34)c1C#N)C2` [Compound I-65, 2-(7-acryloyl-2,7-diazaspiro[3.5]nonan-2-yl)-6-(5-methyl-1H-indazol-4-yl)-4-(pyridin-2-ylmethoxy) benzonitrile], the Bind % result is “+ (+ indicates binding activity greater than 0% and up to 50%)”.
In the case of `C=CC(=O)N1CCCC2(C1)CN(c1cc(OCc3ccccn3)cc(-c3c(C)ccc4[nH]ncc34)c1C#N)C2` [Compound I-66, 2-(6-acryloyl-2,6-diazaspiro[3.5]nonan-2-yl)-6-(5-methyl-1H-indazol-4-yl)-4-(pyridin-2-ylmethoxy) benzonitrile], the Bind % result is “+ (+ indicates binding activity greater than 0% and up to 50%)”.
On the same count and under the same terms, for `CC#CC(=O)N1CCCC2(C1)CN(c1cc(OCc3ccccn3)cc(-c3c(C)ccc4[nH]ncc34)c1C#N)C2` [Compound I-67, 2-(6-(but-2-ynoyl)-2,6-diazaspiro[3.5]nonan-2-yl)-6-(5-methyl-1H-indazol-4-yl)-4-(pyridin-2-ylmethoxy) benzonitrile] the value was “+ (+ indicates binding activity greater than 0% and up to 50%)”; for `Cc1ccc2cnn(C)c2c1-c1cc(N2CCCC(O)C2)cc(N2CCC3(CN(C(=O)/C=C/CN(C)C)C3)C2)c1C#N` (stereo not shown) [Compound I-69, (E)-2-(1,6-dimethyl-1H-indazol-7-yl)-6-(2-(4-(dimethylamino)but-2-enoyl)-2,6-diazaspiro[3.4]octan-6-yl)-4-(3-hydroxypiperidin-1-yl)benzonitrile], “+ (+ indicates binding activity greater than 0% and up to 50%)”.
As to `Cc1ccc2[nH]ncc2c1-c1cc(N2CCCC(O)C2)cc(N2CCC3(CN(C(=O)/C=C/CN(C)C)C3)C2)c1C#N` (stereo not shown) [Compound I-70, (E)-2-(2-(4-(dimethylamino)but-2-enoyl)-2,6-diazaspiro[3.4]octan-6-yl)-4-(3-hydroxypiperidin-1-yl)-6-(5-methyl-1H-indazol-4-yl)benzonitrile], the Bind % entry is “++ (++ indicates binding activity from 50 to 75%)”.
On the same count and under the same terms, with `CC#CC(=O)N1CC2(C1)CN(c1cc(OCc3ccccn3)cc(-c3c(C)ccc4[nH]ncc34)c1C#N)C2` [Compound I-73, 2-(6-(but-2-ynoyl)-2,6-diazaspiro[3.3]heptan-2-yl)-6-(5-methyl-1H-indazol-4-yl)-4-(pyridin-2-ylmethoxy) benzonitrile] the entry was “+ (+ indicates binding activity greater than 0% and up to 50%)”; with `CC#CC(=O)N1CCCC2(CCN(c3cc(OCc4ccccn4)cc(-c4c(C)ccc5[nH]ncc45)c3C#N)C2)C1` (stereo not shown) [Compound I-74, 2-(7-(but-2-ynoyl)-2,7-diazaspiro[4.5]decan-2-yl)-6-(5-methyl-1H-indazol-4-yl)-4-(pyridin-2-ylmethoxy) benzonitrile], “+ (+ indicates binding activity greater than 0% and up to 50%)”; with `C=CC(=O)N1CCCC2(CCN(c3cc(OCc4ccccn4)cc(-c4c(C)ccc5[nH]ncc45)c3C#N)C2)C1` (stereo not shown) [Compound I-75, 2-(7-acryloyl-2,7-diazaspiro[4.5]decan-2-yl)-6-(5-methyl-1H-indazol-4-yl)-4-(pyridin-2-ylmethoxy) benzonitrile], “+ (+ indicates binding activity greater than 0% and up to 50%)”.
Still for that read-out and setting: for `C=CC(=O)N1CC2(CCCN(c3cc(OCc4ccccn4)cc(-c4c(C)ccc5[nH]ncc45)c3C#N)C2)C1` [Compound I-78, 2-(2-acryloyl-2,6-diazaspiro[3.5]nonan-6-yl)-6-(5-methyl-1H-indazol-4-yl)-4-(pyridin-2-ylmethoxy) benzonitrile] the value was “+ (+ indicates binding activity greater than 0% and up to 50%)”; for `CC#CC(=O)N1CC2(CCCN(c3cc(OCc4ccccn4)cc(-c4c(C)ccc5[nH]ncc45)c3C#N)C2)C1` [Compound I-79, 2-(2-(but-2-ynoyl)-2,6-diazaspiro[3.5]nonan-6-yl)-6-(5-methyl-1H-indazol-4-yl)-4-(pyridin-2-ylmethoxy) benzonitrile], “+ (+ indicates binding activity greater than 0% and up to 50%)”; for `C=CC(=O)N1CC2(CCN(c3cc(N4CCC(O)CC4)cc(-c4c(C)ccc5[nH]ncc45)c3C#N)CC2)C1` [Compound I-81, 2-(2-acryloyl-2,7-diazaspiro[3.5]nonan-7-yl)-4-(4-hydroxypiperidin-1-yl)-6-(5-methyl-1H-indazol-4-yl)benzonitrile], “+ (+ indicates binding activity greater than 0% and up to 50%)”.
On to `C=CC(=O)N1CC2(CCN(c3cc(N4CCC(N5CCN(C)[C@@H](C)C5)CC4)cc(-c4c(C)ccc5[nH]ncc45)c3C#N)CC2)C1` [Compound I-82, 2-(2-acryloyl-2,7-diazaspiro[3.5]nonan-7-yl)-4-(4-((S)-3,4-dimethyl-piperazin-1-yl)piperidin-1-yl)-6-(5-methyl-1H-indazol-4-yl)benzonitrile], for which the Bind % entry is “+ (+ indicates binding activity greater than 0% and up to 50%)”.
As to `C=CC(=O)N1CC2(CCN(c3ccc(OCCCN(C)C)c(-c4c(C)ccc5[nH]ncc45)c3C#N)CC2)C1` [Compound I-83, 6-(2-acryloyl-2,7-diazaspiro[3.5]nonan-7-yl)-3-(3-(dimethylamino)propoxy)-2-(5-methyl-1H-indazol-4-yl)benzonitrile], the Bind % result is “+ (+ indicates binding activity greater than 0% and up to 50%)”.
Same read-out and setting: for `C=CC(=O)N1CC2(CCN(c3cc(N4CCOCC4)c(OC)c(-c4c(C)ccc5[nH]ncc45)c3C#N)CC2)C1` [Compound I-84, 6-(2-acryloyl-2,7-diazaspiro[3.5]nonan-7-yl)-3-methoxy-2-(5-methyl-1H-indazol-4-yl)-4-morpholino-benzonitrile] the value was “+ (+ indicates binding activity greater than 0% and up to 50%)”; for `C=CC(=O)N1CC2(CCN(c3ccc(Cl)c(-c4c(C)ccc5[nH]ncc45)c3C#N)CC2)C1` [Compound I-85, 6-(2-acryloyl-2,7-diazaspiro[3.5]nonan-7-yl)-3-chloro-2-(5-methyl-1H-indazol-4-yl)benzonitrile], “+ (+ indicates binding activity greater than 0% and up to 50%)”; for `C=CC(=O)N1CCC2(CCN(c3ccc(F)c(-c4c(C)ccc5[nH]ncc45)c3C#N)CC2)C1` [Compound I-94, 6-(2-acryloyl-2,8-diazaspiro[4.5]decan-8-yl)-3-fluoro-2-(5-methyl-1H-indazol-4-yl)benzonitrile], “+ (+ indicates binding activity greater than 0% and up to 50%)”.

The experiment is the same for the next values; noted with them: tested at a concentration of 8 μM.
Regarding `Cc1ccc2[nH]ncc2c1-c1cc(OCc2ccccn2)cc(N2CCC3(CN(C(=O)/C=C/CN(C)C)C3)C2)c1C#N` [Compound I-60, (E)-2-(2-(4-(dimethylamino)but-2-enoyl)-2,6-diazaspiro[3.4]octan-6-yl)-6-(5-methyl-1H-indazol-4-yl)-4-(pyridin-2-ylmethoxy) benzonitrile], the Bind % result is “+ (+ indicates binding activity greater than 0% and up to 50%)”.
Consider `C=CC(=O)N1CC2(CCN(c3cc(OCc4ccccn4)cc(-c4c(C)ccc5[nH]nc(C)c45)c3C#N)C2)C1` [Compound I-71, 2-(2-acryloyl-2,6-diazaspiro[3.4]octan-6-yl)-6-(3,5-dimethyl-1H-indazol-4-yl)-4-(pyridin-2-ylmethoxy) benzonitrile], for which the Bind % entry is “+++ (+++ indicates binding activity greater than 75%)”.
With `C=CC(=O)N1CC2(C1)CN(c1cc(OCc3ccccn3)cc(-c3c(C)ccc4[nH]ncc34)c1C#N)C2` [Compound I-72, 2-(6-acryloyl-2,6-diazaspiro[3.3]heptan-2-yl)-6-(5-methyl-1H-indazol-4-yl)-4-(pyridin-2-ylmethoxy) benzonitrile], the Bind % result is listed as “+++ (+++ indicates binding activity greater than 75%)”.
Take `C=CC(=O)N1CC2(CCN(c3cc(N4CCCC(O)C4)cc(-c4c(C)ccc5[nH]nc(C)c45)c3C#N)C2)C1` (stereo not shown) [Compound I-76, 2-(2-acryloyl-2,6-diazaspiro[3.4]octan-6-yl)-6-(3,5-dimethyl-1H-indazol-4-yl)-4-(3-hydroxypiperidin-1-yl)benzonitrile]: the Bind % entry is “++ (++ indicates binding activity from 50 to 75%)”.
Still for that read-out and setting: for `C=CC(=O)N1CC2(CCN(c3cc(N4CCOCC4)c(F)c(-c4c(C)ccc5[nH]ncc45)c3C#N)CC2)C1` [Compound I-80, 6-(2-acryloyl-2,7-diazaspiro[3.5]nonan-7-yl)-3-fluoro-2-(5-methyl-1H-indazol-4-yl)-4-morpholino-benzonitrile] the value was “+ (+ indicates binding activity greater than 0% and up to 50%)”.

The values are drawn from patent publication US20210380595A1 (ARAXES PHARMA LLC, priority 2018, published 2021).
